Tested on: 485176-168-R4-J1-PDC spheroids with HUVEC/MSC, viability
Assay: Anticancer human tumor 485176-168-R4-J1-PDC patient-derived pancreatic adenocarcinoma cell line growth inhibition [GQUAD]
Conditions: for IC50: curve of first compound; for viability, T/C: stronger effect = lower value
Summary of the method: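 Viability of tumor cells grown as complex spheroids with endothelial and stromal cells, exposed to drug combinations. Top concentration at or near clinical Cmax (else 10 microM), diluted in half-log increments.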

[1] = second compound 0.0316 µM, first compound 0.0316 µM
[2] = second compound 0.0316 µM, first compound 0.1 µM
[3] = second compound 0.0316 µM, first compound 0.316 µM
[4] = second compound 0.0316 µM, first compound 1 µM
[5] = second compound 0.0316 µM, first compound 3.16 µM
[6] = second compound 0.0316 µM, first compound 10 µM
[7] = second compound 0.1 µM, first compound 0.0316 µM
[8] = second compound 0.1 µM, first compound 0.1 µM
[9] = second compound 0.1 µM, first compound 0.316 µM
[10] = second compound 0.1 µM, first compound 1 µM
[11] = second compound 0.1 µM, first compound 3.16 µM
[12] = second compound 0.1 µM, first compound 10 µM
[13] = second compound 0.316 µM, first compound 0.0316 µM
[14] = second compound 0.316 µM, first compound 0.1 µM
[15] = second compound 0.316 µM, first compound 0.316 µM
[16] = second compound 0.316 µM, first compound 1 µM
[17] = second compound 0.316 µM, first compound 3.16 µM
[18] = second compound 0.316 µM, first compound 10 µM
[19] = second compound 1 µM, first compound 0.0316 µM
[20] = second compound 1 µM, first compound 0.1 µM
[21] = second compound 1 µM, first compound 0.316 µM
[22] = second compound 1 µM, first compound 1 µM
[23] = second compound 1 µM, first compound 3.16 µM
[24] = second compound 1 µM, first compound 10 µM
[25] = second compound 3.16 µM, first compound 0.0316 µM
[26] = second compound 3.16 µM, first compound 0.1 µM
[27] = second compound 3.16 µM, first compound 0.316 µM
[28] = second compound 3.16 µM, first compound 1 µM
[29] = second compound 3.16 µM, first compound 3.16 µM
[30] = second compound 3.16 µM, first compound 10 µM
[31] = second compound 10 µM, first compound 0.0316 µM
[32] = second compound 10 µM, first compound 0.1 µM
[33] = second compound 10 µM, first compound 0.316 µM
[34] = second compound 10 µM, first compound 1 µM
[35] = second compound 10 µM, first compound 3.16 µM
[36] = second compound 10 µM, first compound 10 µM
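Further: spheroids exposed to compounds for seven days before readout.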
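Wherever viability, T/C is given: percent viability relative to DMSO vehicle control wells as 100%.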

## CC(C)(O)C1CCC(Nc2ccc3ncc(-c4cccc(C(F)(F)F)c4)n3n2)CC1 (centres undefined) + Cc1cnc(CNC(=O)c2c(=O)c3ccc(N4CCCN(C)CC4)nc3n3c2sc2ccccc23)cn1
Second compound 0.0316 µM
  IC50: > 10000 nM
Second compound 0.1 µM
  IC50: 4380 nM
Second compound 0.316 µM
  IC50: 1370 nM
Second compound 1 µM
  IC50: 371 nM
Second compound 3.16 µM
  IC50: 39.9 nM
Second compound 10 µM
  IC50: < 31.6 nM
[1]
  viability, T/C: 94.1%
[2]
  viability, T/C: 81.3%
[3]
  viability, T/C: 97.5%
[4]
  viability, T/C: 67%
[5]
  viability, T/C: 49.7%
[6]
  viability, T/C: 51.6%
[7]
  viability, T/C: 64.5%
[8]
  viability, T/C: 71.7%
[9]
  viability, T/C: 57.6%
[10]
  viability, T/C: 65.8%
[11]
  viability, T/C: 47.2%
[12]
  viability, T/C: 44.8%
[13]
  viability, T/C: 57.3%
[14]
  viability, T/C: 55.1%
[15]
  viability, T/C: 58.9%
[16]
  viability, T/C: 54.1%
[17]
  viability, T/C: 38.4%
[18]
  viability, T/C: 39.7%
[19]
  viability, T/C: 49.2%
[20]
  viability, T/C: 48.9%
[21]
  viability, T/C: 54%
[22]
  viability, T/C: 45.5%
[23]
  viability, T/C: 31.4%
[24]
  viability, T/C: 36.2%
[25]
  viability, T/C: 52.5%
[26]
  viability, T/C: 45%
[27]
  viability, T/C: 43.3%
[28]
  viability, T/C: 42.8%
[29]
  viability, T/C: 25.2%
[30]
  viability, T/C: 15.8%
[31]
  viability, T/C: 43.4%
[32]
  viability, T/C: 38.8%
[33]
  viability, T/C: 41.6%
[34]
  viability, T/C: 37.9%
[35]
  viability, T/C: 0.55%
[36]
  viability, T/C: 0.23%

## O=C(NO)c1cnc(N2CCN(S(=O)(=O)c3ccc4ccccc4c3)CC2)nc1 + Cc1[nH]c2ccc(F)cc2c1-c1nc2c3cccnc3c3ncccc3c2[nH]1
Second compound 0.0316 µM
  IC50: 511 nM
Second compound 0.1 µM
  IC50: 597 nM
Second compound 0.316 µM
  IC50: 557 nM
Second compound 1 µM
  IC50: 592 nM
Second compound 3.16 µM
  IC50: 1030 nM
Second compound 10 µM
  IC50: 1020 nM
[1]
  viability, T/C: 94.1%
[2]
  viability, T/C: 86.3%
[3]
  viability, T/C: 70.8%
[4]
  viability, T/C: 21.8%
[5]
  viability, T/C: 0.24%
[6]
  viability, T/C: 0.23%
[7]
  viability, T/C: 90.3%
[8]
  viability, T/C: 98.4%
[9]
  viability, T/C: 80.4%
[10]
  viability, T/C: 25.1%
[11]
  viability, T/C: 0.3%
[12]
  viability, T/C: 0.19%
[13]
  viability, T/C: 122%
[14]
  viability, T/C: 87.5%
[15]
  viability, T/C: 67.1%
[16]
  viability, T/C: 42.8%
[17]
  viability, T/C: 0.2%
[18]
  viability, T/C: 0.18%
[19]
  viability, T/C: 94.2%
[20]
  viability, T/C: 84.7%
[21]
  viability, T/C: 68%
[22]
  viability, T/C: 37.6%
[23]
  viability, T/C: 0.32%
[24]
  viability, T/C: 0.18%
[25]
  viability, T/C: 87.9%
[26]
  viability, T/C: 79.9%
[27]
  viability, T/C: 73.5%
[28]
  viability, T/C: 52.3%
[29]
  viability, T/C: 0.29%
[30]
  viability, T/C: 0.21%
[31]
  viability, T/C: 88.2%
[32]
  viability, T/C: 71.7%
[33]
  viability, T/C: 75.6%
[34]
  viability, T/C: 50.9%
[35]
  viability, T/C: 0.27%
[36]
  viability, T/C: 0.37%
